In PMC3411462, “Long-acting κ opioid antagonists nor-BNI, GNTI and JDTic: pharmacokinetics in mice and lipophilicity” (BMC Pharmacology, 2012):
Several values for one entry are separate records, joined by “and”; a condition that tells them apart may be missing. Equal values may be shown once. Read-outs that look alike come from different tables or passages of the source. Marks after values point to notes of the source that are not given here.

Legend:
[1] = cited from earlier work
[2] = Brain and plasma concentrations in mice after intraperitoneal administration (LC-MS-MS), non-compartmental analysis; type: in vivo; conditions: for [drug],plasma (free base equivalent): listed as GNTI.2HCl.H2O; for [drug],plasma (free base equivalent) / concentration at 0.5 h / concentration at 1 h / concentration at 2 h / concentration at 4 h / concentration at 24 h / AUC(0-inf) / CL/F / Vd/F: 10 mg/kg
Protocol: Doses are reported by weight of the specified salt. […] Body mass was measured to ±0.1 g.
Mice were sacrificed by cervical dislocation, then decapitated for collection of brain and blood samples. Trunk blood was collected in 1.5 mL polypropylene micro-centrifuge tubes, shaken with a few crystals of EDTA and cooled in ice-water. Samples were centrifuged at 14,000 rpm (revolutions per minute) for 15 minutes at 3 °C, then stored in glass sample vials at −20 °C until analysis. Brains were removed and immersed for 30 seconds in 2-methylbutane over dry ice, then stored in polypropylene tubes at −20 °C until sample preparation. Sample tubes were thawed in ice-water, distilled water was added (2:1 by weight) and the brain homogenized with a probe sonicator for 3 minutes over ice-water (Fisher Sonic Dismembrator 300 at 35% power). The probe was rinsed with ethanol and distilled water between samples. Brain homogenate was stored in glass sample vials at −20 °C until analysis by LC-MS-MS.
Drug concentrations (ng mL^-1) refer to the free base, and were measured by liquid chromatography-tandem mass spectrometry (LC-MS-MS) as described previously. Briefly, samples were shaken with 3 volumes of methanol and centrifuged at 3000 g. Aliquots of the supernatants were diluted with 5 volumes of water containing an appropriate internal standard. Extracts from in vitro and in vivo experiments were analyzed by multiple reaction monitoring on an API3000 or API4000 LC-MS-MS system with electrospray ion source, controlled and analyzed using the Analyst software package (Applied Biosystems, Foster City, CA). Chromatography was conducted on a Sprite Armor C18 analytical column (20 × 2.1 mm, 10 μm particle size, Analytical Sales and Products, Pompton Plains, NJ) with a 0.5 μm PEEK guard filter. Compounds were eluted with a gradient from 2% to 95% acetonitrile in water, both containing 0.1% formic acid. Compounds were detected in positive ion mode, tuned to the mass transition with the largest intensity. Analyte concentrations were determined by comparison of analyte:internal standard peak area ratios to those of standards prepared in the appropriate matrices.
For calculation of mean concentrations, the earliest values below the MRC were substituted by MRC ÷ 2, as recommended elswhere. Pharmacokinetic parameters were calculated from mean concentrations using PKSolver, employing non-compartmental analysis for extravascular administration. Curves in figures were fitted using Origin 8.5 (OriginLab, Northampton, MA) using 2-compartment models. Confidence intervals and two-tailed p values (unpaired t test) were calculated using Graphpad Quickcalcs. One outlier was identified using Grubbs' test (p < 0.01) and excluded from the analysis; see Additional file 1.

[3] = design: method as in PMID 17049114; conditions: mice, i.p.; cited from earlier work
[4] = system: mice; test: Fatalities and behavioral effects after i.p. administration
Protocol: Experiments were performed between 10 am and 6 pm. Mice were not used in other experiments, or exposed to other drugs, before testing began.
Doses are reported by weight of the specified salt. Intraperitoneal injections were administered in distilled water vehicle (10 mL kg^-1). Body mass was measured to ±0.1 g. Some values were inadvertently measured on a low-precision balance (± 2.5 g); these timepoints were replicated at ±0.1 g.

[5] = 0.5 h, 10 mg/kg i.p., individual mice
[6] = 1 h, 10 mg/kg i.p., individual mice
[7] = 2 h, 10 mg/kg i.p., individual mice
[8] = male, Swiss-Webster, mouse, ip, plasma NCA, 10 mg/kg i.p.

## N=C(N)Nc1ccc2[nH]c3c(c2c1)C[C@@]1(O)[C@H]2Cc4ccc(O)c5c4[C@@]1(CCN2CC1CC1)[C@H]3O5 [GNTI, 5’-guanidinonaltrindole]
[1]; 25 °C, ref Tocris product information sheet
  Water solubility: >100^a mmol L^-1
[1]; ref Tocris product information sheet (Table 1)
  Water solubility: at least 100 mM
[2]; 10 mg kg^-1 i.p., mice
  Time of maximal mean plasma level: 30 min
[2]; [5]
  [drug],brain (free base equivalent): <120 ng/g
  [drug],plasma (free base equivalent): 3610 ng/mL and 1790 ng/mL and 3840 ng/mL
[2]; [6]
  [drug],brain (free base equivalent): <120 ng/g
  [drug],plasma (free base equivalent): 1750 ng/mL and 2420 ng/mL and 4880 ng/mL
[2]; [7]
  [drug],brain (free base equivalent): <120 ng/g
  [drug],plasma (free base equivalent): 1120 ng/mL and 3700 ng/mL and 2910 ng/mL
[2]; 4 h, 10 mg/kg i.p., individual mice
  [drug],plasma (free base equivalent): 114 ng/mL and 206 ng/mL
[2]; 24 h, 10 mg/kg i.p., individual mice
  [drug],plasma (free base equivalent): <13 ng/mL
[2]; all timepoints, 10 mg kg^-1 i.p.
  Brain levels (below MRC): < 120 ng/mL
[2]; brain, 10 mg kg^-1 i.p., mice
  C max,brain: < 120 ng/mL
[2]; by 24 hours, 10 mg kg^-1 i.p.
  Decline of mean plasma concentration from peak: at least 98%
[2]; male, Swiss-Webster, mouse, brain and plasma (unbound), intraperitoneal, postmortem samples, 13–18 minutes after 39 mg kg^-1 GNTI·2CF3CO2H, read-out: Cmax,brain,u/Cmax,p,u
  Kp uu: < 0.0007
[2]; male, Swiss-Webster, mouse, brain and plasma, intraperitoneal, postmortem samples, 13–18 minutes after 39 mg kg^-1 GNTI·2CF3CO2H, read-out: Cmax,brain/Cmax,p
  Kp: 0.0085
[2]; male, Swiss-Webster, mouse, brain, ip, 0.5 h, 10 mg/kg i.p., individual mice, read-out: [drug],brain (free base equivalent)
  concentration at 0.5 h: < 120 ng/g
[2]; male, Swiss-Webster, mouse, brain, ip, 0.5 h, 10 mg/kg i.p., read-out: mean (brain)
  concentration at 0.5 h: < 120 ng/g
[2]; male, Swiss-Webster, mouse, brain, ip, 1 h, 10 mg/kg i.p., individual mice, read-out: [drug],brain (free base equivalent)
  concentration at 1 h: < 120 ng/g
[2]; male, Swiss-Webster, mouse, brain, ip, 2 h, 10 mg/kg i.p., individual mice, read-out: [drug],brain (free base equivalent)
  concentration at 2 h: < 120 ng/g
[2]; male, Swiss-Webster, mouse, in vivo, ip, ·2HCl salts, 10 mg kg^-1 i.p., mice
  Tmax: 0.5 h
[2]; [8]
  AUC(0-t): 9450 ng·h/mL
  Tmax: 0.5 h
[2]; male, Swiss-Webster, mouse, ip, plasma NCA, 10 mg/kg i.p., read-out: Lambda_z (converted)
  k el: 6.68e-05 s⁻¹
[2]; male, Swiss-Webster, mouse, ip, plasma NCA, 10 mg/kg i.p., read-out: MRT 0-inf_obs
  MRT inf: 2.18 h
[2]; male, Swiss-Webster, mouse, ip, plasma NCA, 10 mg/kg i.p., read-out: t1/2 (converted)
  half-life: 2.88 h
[2]; male, Swiss-Webster, mouse, ip, plasma, 10 mg kg^-1 i.p., mice, read-out: C max,p
  Cmax: 3080 ng/mL
[2]; male, Swiss-Webster, mouse, plasma, intraperitoneal, 0.5 h, read-out: Conc (plasma, NCA input)
  concentration at 0.5 h: 3080 ng/mL
[2]; male, Swiss-Webster, mouse, plasma, intraperitoneal, 1 h, read-out: Conc (plasma, NCA input)
  concentration at 1 h: 3020 ng/mL
[2]; male, Swiss-Webster, mouse, plasma, intraperitoneal, 2 h, read-out: Conc (plasma, NCA input)
  concentration at 2 h: 2580 ng/mL
[2]; male, Swiss-Webster, mouse, plasma, intraperitoneal, 4 h, read-out: Conc (plasma, NCA input)
  concentration at 4 h: 154 ng/mL
[2]; male, Swiss-Webster, mouse, plasma, intraperitoneal, 24 h, read-out: Conc (plasma, NCA input)
  concentration at 24 h: 8.8 ng/mL
[2]; male, Swiss-Webster, mouse, plasma, ip, 0.5 h, 10 mg/kg i.p., read-out: mean (plasma)
  concentration at 0.5 h: 3080 ng/mL
[2]; male, Swiss-Webster, mouse, plasma, ip, 1 h, 10 mg/kg i.p., read-out: mean (plasma)
  concentration at 1 h: 3020 ng/mL
[2]; male, Swiss-Webster, mouse, plasma, ip, 2 h, 10 mg/kg i.p., read-out: mean (plasma)
  concentration at 2 h: 2580 ng/mL
[2]; male, Swiss-Webster, mouse, plasma, ip, 4 h, 10 mg/kg i.p., individual mice, read-out: [drug],plasma (free base equivalent)
  concentration at 4 h: 142 ng/mL
[2]; male, Swiss-Webster, mouse, plasma, ip, 4 h, 10 mg/kg i.p., read-out: mean (plasma)
  concentration at 4 h: 154 ng/mL
[2]; male, Swiss-Webster, mouse, plasma, ip, 24 h, 10 mg/kg i.p., individual mice, read-out: [drug],plasma (free base equivalent)
  concentration at 24 h: 13 ng/mL
[2]; male, Swiss-Webster, mouse, plasma, ip, 24 h, 10 mg/kg i.p., <MRC substituted by MRC/2, read-out: mean (plasma)
  concentration at 24 h: 9 ng/mL
[2]; male, Swiss-Webster, mouse, plasma, ip, plasma NCA, 10 mg/kg i.p., read-out: AUC 0-inf_obs
  AUC(0-inf): 9490 ng·h/mL
[2]; male, Swiss-Webster, mouse, plasma, ip, plasma NCA, 10 mg/kg i.p., read-out: Cl/F_obs (converted)
  CL/F: 17.6 mL/min/kg
[2]; male, Swiss-Webster, mouse, plasma, ip, plasma NCA, 10 mg/kg i.p., read-out: Vz/F_obs
  Vd/F: 4.38 L/kg
[2]; male, Swiss-Webster, mouse, plasma, ip, plasma, 10 mg kg^-1 i.p., non-compartmental analysis, read-out: AUC 0–∞,p
  AUC(0-inf): 9490 ng·h/mL
[2]; male, Swiss-Webster, mouse, plasma, ip, plasma, 10 mg kg^-1 i.p., non-compartmental analysis, read-out: CL/F (converted)
  CL/F: 16.7 mL/min/kg
[2]; male, Swiss-Webster, mouse, plasma, ip, plasma, 10 mg kg^-1 i.p., non-compartmental analysis, read-out: V z /F
  Vd/F: 4.4 L/kg
[2]; plasma NCA, 10 mg/kg i.p.
  AUMC 0-inf_obs: 20681.1 ng/ml*h^2
  Tlag: 0 h
[2]; unbound brain, 10 mg kg^-1 i.p., in vivo brain binding assumed at least 3-fold greater than homogenate
  C max,brain,u: < 6 nM
[3]
  Sedation, duration: less than 3 hours
  Sedation, time to maximum: ≤ 20 min
[4]; 10 mg kg^-1, 15 mice monitored for at least 30 minutes
  Fatalities: no fatalities
[4]; 30 mg kg^-1
  Time to death after injection: ≤ 11 min
[4]; 30 mg kg^-1, three mice
  Fatalities: all three mice unexpectedly became ataxic, followed by convulsions and death
